From patent US4079140A, “Benzothienyl aminoethyl ketones and their application in therapeutics” (Innothera, priority 1975, dated 1978)
≈ marks a conversion by molar mass, not a printed value. Where “and” joins values, the source holds several entries; their conditions need not be identical. Equal values may be shown once. Where a name gives a salt, the structure may show the parent alone. Read-outs that look alike come from different tables or passages of the source.

What was measured:
[1] = tested on: human blood-plaques; assay: Blood-plaque aggregation inhibition in B.P.R.P. (D.P.A., adrenaline, collagene); settings: for a(X): blood-plaque aggregation inhibiting activity, Adrenaline / a(X): blood-plaque aggregation inhibiting activity, D.P.A.: compound 2.5 × 10^-5 g/ml; for ratio of activities a(X)/a(R), Adrenaline / ratio of activities a(X)/a(R), D.P.A.: X 2.5 × 10^-5 g/ml vs Dipyridamole 5 × 10^-4 g/ml; for ratio of activities a(X)/a(R), Adrenaline: head is drawing 15; for a(X): blood-plaque aggregation inhibiting activity, Collagene: compound 2 × 10^-5 g/ml; for ratio of activities a(X)/a(R), Collagene: X 2 × 10^-5 g/ml vs Dipyridamole 2 × 10^-4 g/ml, head is drawing 16; for ratio of activities a(X)/a(R), D.P.A.: head is drawing 13
[2] = Acute oral toxicity (LD 50), Miller and Tainter; settings: mouse, in vivo; for LD50 at 168 h: mice deprived of food 18 hours, oral (esophageal probe), mortality followed seven days, read-out: LD 50 (50% lethal dose)
Method: Acute toxicity of compounds of formula (I) was measured orally (esophageal probe) on mice deprived of food 18 hours before the beginning of the test. The products were suspended in a solution of dilute carboxymethyl cellulose. Calculation of the 50% lethal dose was carried out according to the method of Miller and Tainter (Miller L. C., Tainter M. L., proc. Soc. Exptl. Biol. Med. 1944, 57, 261-264).
The mortality rate was checked for seven days following the treatment.

[3] = tested on: phenylparaquinone (P.P.Q.) painful syndrome in mouse; assay: Analgesic and anti-inflammatory activity (P.P.Q. painful syndrome); assay type: in vivo; settings: for a (X): percentage activity, P.P.Q.: 50 mg/kg digestively; for ratio of activity of X in relation to R, P.P.Q.: X 50 mg/kg vs Glafenine 25 mg/kg, 0.5 = half the activity of reference, head is drawing 19
Method: The intraperitoneal injection of phenylparaquinone (P.P.Q.) to a mouse causes the appearance of a painful syndrome appearing within 5 minutes of the injection and disappearing after about 30 minutes (Siegmund E. A., Cadmus A., Lu G., J. Pharmacol. Exp. Therap. 1957, 119, 453).
This painful syndrome manifests itself in the animal by a series of characteristic crises more or less close together and fleeting, during which can be noted a twisting or stretching of the body, a hollowing of the sides and a stretching of the hind legs.
It is then possible to note the number of crises in a given interval of time.
The preventive administration of analgesic or anti-inflammatory substances prevents the appearance of the crises and reduces the frequence thereof.
The reference substance used in the tests (R) is the ester of N-(7-chloro-4-quinolyl) anthrilic acid and 2,3-dihydroxy n. propanol (known under the trademark "Glafenine").
It is administered orally as a dose of 25 mg/kg.
The compounds of formula I (X) were administered digestively as a dose of 50 mg/kg.
The interval of time (t) chosen for calculating the analgesic activity was between 10 and 15 minutes after injection of P.P.Q. which is the period of maximum frequency of the crises. This activity was expressed in the following manner;
n: the number of crises observed in controle mice;
n': the number of crises observed in mice previously treated with the reference substance (R);
n": the number of crises observed in mice having received substance (X)
The percentage activity of R is equal to: [formula] The percentage activity of X is equal to: [formula] The activity of X in relation to R is estimated by the ratio: [formula]

[4] = tested on: isolated heart of a guinea-pig; assay: Vasodilatatory activity, coronary flow of isolated perfused heart; settings: for activation at 10 µg/mL: Cavia porcellus, compound 1 × 10^-5 g/ml, Locke solution, 37° C, at climax of activity, read-out: P (X): percentage of coronary flow increase; for ratio P (X)/P (R): X and Dipyridamole both 1 × 10^-5 g/ml, head is drawing 21
Method: The percentage of flow increase (P) is calculated at the climax of the activity of X or R.

[5] = tested on: rat's isolated duodenum; assay: Spasmolytic activity on isolated duodenum, barium chloride contraction (Magnus); settings: for IC50: Rattus norvegicus; for relative activity, ratio of ED 50 (papaverine hydrochloride = R): 2 = twice the activity of papaverine hydrochloride, head is drawing 18
Method: Spasmolytic activity was studied on a rat's isolated duodenum maintained in a survival medium of an aerated Tyrode solution heated to 38° C, according to the technique of Magnus (Magnus R. -- Archiv. ges. Physiol., 1905, 180, 1-71).
The contracting agent was barium chloride, the reference antagonist agent being papaverine hydrochloride (R). The average activity of compounds of formula I (X) compared to that of the reference agent were expressed by calculating the ratio of 50 efficient doses (ED 50) determined graphically on logarithmic paper: [formula]
For example: a substance having a relative activity expressed by the figure 2 has an activity equal to twice that of papaverine hydrochloride.

[6] = crises 10 to 15 minutes after P.P.Q.
[7] = barium chloride contraction, Tyrode solution, 38° C, read-out: ED 50 (X), spasmolytic activity

| Compound | a(X): blood-plaque aggregation inhibiting activity, Adrenaline ([1]; adrenaline-induced) | ratio of activities a(X)/a(R), Adrenaline [1] | a(X): blood-plaque aggregation inhibiting activity, Collagene ([1]; collagene-induced) | ratio of activities a(X)/a(R), Collagene [1] | LD50 at 168 h [2] | a (X): percentage activity, P.P.Q. [3, 6] | ratio of activity of X in relation to R, P.P.Q. [3] | ratio of activities a(X)/a(R), D.P.A. [1] | further results |
| --- | --- | --- | --- | --- | --- | --- | --- | --- | --- |
| C=CCN(CC=C)CCC(=O)c1cc2ccccc2s1 [Compound 3] | 64% | 7 × 10^-1 | 17% | 2.5 × 10^-1 | 1000 mg/kg | 58% | 0.75 | – | – |
| O=C(OCC(O)CO)c1ccccc1Nc1ccnc2cc(Cl)ccc12 (stereo not shown) [Glafenine, ester of N-(7-chloro-4-quinolyl) anthrilic acid and 2,3-dihydroxy n. propanol, reference compound] | – | – | – | – | – | – | – | – | a (R): percentage activity of reference, P.P.Q. ([3]; 25 mg/kg orally, crises 10 to 15 minutes after P.P.Q., tested beside the compound of the same line): 71% and 77% and 75% |
| O=C(CCN1CCCCCC1)c1cc2ccccc2s1 [Compound 1, 1-(benzothien-2'yl) 3-N-perhydroazepino propanone oxalate] | 6% | 6 × 10^-2 | 91% | 2.5 | 1200 mg/kg | – | – | 7.5 × 10^-1 | a(X): blood-plaque aggregation inhibiting activity, D.P.A. ([1]; D.P.A.-induced): 54%; activation at 10 µg/mL [4]: 66%; ratio P (X)/P (R) [4]: 0.87 |
| OCCN(CCO)c1nc(N2CCCCC2)c2nc(N(CCO)CCO)nc(N3CCCCC3)c2n1 [Dipyridamole, reference compound] | – | – | – | – | – | – | – | – | a(R): blood-plaque aggregation inhibiting activity of reference, D.P.A. ([1]; D.P.A.-induced, reference 5 × 10^-4 g/ml, tested beside the compound of the same line): 72% and 53%; a(R): blood-plaque aggregation inhibiting activity of reference, Adrenaline ([1]; adrenaline-induced, reference 5 × 10^-4 g/ml, tested beside the compound of the same line): 96% and 91% and 90% and 80%; a(R): blood-plaque aggregation inhibiting activity of reference, Collagene ([1]; collagene-induced, reference 2 × 10^-4 g/ml, tested beside the compound of the same line): 36% and 42% and 67%; LD50 ([2]; po, reference product of the aggregation test, source of value not given): 2150 mg/kg |
| O=C(CCN1CCOCC1)c1cc2ccccc2s1 [Compound 5] | 44% | 4.6 × 10^-1 | 45% | 1.25 | > 1100 mg/kg | 54% | 0.76 | – | – |
| COc1ccc(Cc2nccc3cc(OC)c(OC)cc23)cc1OC [papaverine hydrochloride, reference compound] | – | – | – | – | – | – | – | – | IC50 ([5]; read-out: ED 50 (R), spasmolytic activity of reference, barium chloride contraction, Tyrode solution, 38° C, tested beside the compound of the same line): 4.25 µg/mL |
| CN(C)CCC(=O)c1cc2ccccc2s1 [Compound 2] | 98% | 1 | 74% | 1.75 | 960 mg/kg | 36% | 0.51 | 1.4 | relative activity, ratio of ED 50 (papaverine hydrochloride = R) [5]: 2.64; IC50 [5, 7]: 1.6 µg/mL (≈ 6.86 µM); activation at 10 µg/mL [4]: 64%; ratio P (X)/P (R) [4]: 0.4 |
| O=C(CCN1CCCCC1)c1cc2ccccc2s1 [Compound 4] | 89% | 1.1 | 91% | 2.2 | > 1100 mg/kg | 25% | 0.33 | 1.2 | a(X): blood-plaque aggregation inhibiting activity, D.P.A. ([1]; D.P.A.-induced): 63%; relative activity, ratio of ED 50 (papaverine hydrochloride = R) [5]: 1.69; IC50 [5, 7]: 3.1 µg/mL (≈ 11.3 µM) |
